Test results taken from EP4722203A1, “3,4-DIHYDROPHTHALAZIN-1(2H)-ONE DERIVATIVE, AND PREPARATION METHOD THEREFOR AND USE THEREOF” (Academy of Military Medical Sciences, priority 2023, dated 2024).

How the values were obtained:
[1] = test system: NCI-H929 cells; test: Antiproliferative activity, CCK-8 assay; format: cell-based; conditions: Homo sapiens, 144 hours incubation, CCK-8, absorbance at 450 nm, read-out: IC50 (µM) H-929
Experimental: (§1) The cell models used in this example were human hematologic tumor cells, including NCI-H929, RPMI-8226, MV-4-11, U937 and WSU-DLCL-2. Some of the compounds of the present invention were selected to determine their inhibitory activity against the proliferation of NCI-H929, RPMI-8226, MV-4-11, U937, and WSU-DLCL-2 cells.
(§2) • ① The selected compounds were dissolved in DMSO to prepare 10 mM stock solutions. Compounds used within three months should be stored at room temperature in a desiccator; others could be stored at -20°C for long-term storage. • ② The above stock solutions and the positive reference compound pomalidomide were diluted with DMSO. Their initial concentrations were 10 µM. In the experiments of NCI-H929 and RPMI-8226 cells, 3-fold serial dilution with 11 concentration points was performed, with the lowest concentration of 0.00047 µM. The resulting solutions were shaken on a shaker for 5 minutes.
(§3) • ① The NCI-H929, RPMI-8226, MV-4-11, U937, and WSU-DLCL-2 cells in logarithmic growth phase were inoculated in a 96-well plate, 20,000 to 30,000 cells per well, and the plate was pre-cultured for 24 hours in an incubator (at 37°C and 5% CO2). • ② The culture medium in the plate was replaced, and the compounds and the positive control with corresponding concentrations were added to the plated at a volume of 50 µl. • ③ The plate was incubated for 144 hours in an incubator, then 15 µl of CCK-8 solution was added to each well, and incubated in the incubator for another 1-4 hours. • ④ The absorbance at 450 nm was measured using a microplate reader.
(§4) • ① Calculating % Inhibition: [formula] • ② Calculating IC50 value of compound and plotting dose-response curve: The IC50 value was calculated by fitting the % Inhibition and the logarithm of compound concentration to a nonlinear regression (dose response-variable slope) by using GraphPad 6.0. • Y = Bottom + (Top - Bottom) / (1 + 10^((LogIC50 - X) * HillSlope)) • X: log of inhibitor concentration; Y: % Inhibition.
(§5) After calculating % Inhibition, a dose-response curve was plotted with the logarithm of the test compound concentration as the x-axis and the average cell viability as the y-axis, and the IC50 value was obtained by fitting.

[2] = test system: U937 cells; test: Antiproliferative activity, CCK-8 assay; format: cell-based; conditions: Homo sapiens, U-937; 144 hours incubation, CCK-8, absorbance at 450 nm
Experimental: as §1, §2, §3, §4, §5

[3] = test system: WSU-DLCL-2 cells; test: Antiproliferative activity, CCK-8 assay; format: cell-based; conditions: Homo sapiens, WSUDLCL2; 144 hours incubation, CCK-8, absorbance at 450 nm
Experimental: as §1, §2, §3, §4, §5

[4] = test system: MV-4-11 cells; test: Antiproliferative activity, CCK-8 assay; format: cell-based; conditions: Homo sapiens, MV4-11; 144 hours incubation, CCK-8, absorbance at 450 nm
Experimental: as §1, §2, §3, §4, §5

[5] = test system: human multiple myeloma RPMI-8226 xenograft tumors; test: In vivo activity against RPMI-8226 transplanted tumor; parameters: species or system NOD/SCID mice; conditions: 10 mg/kg, QD; for Tumor inhibition rate TGI (%) / Volume (mm^3), 0 days / Volume (mm^3), 12 days: oral gavage; for Tumor inhibition rate TGI (%): 12 consecutive days; for Volume (mm^3), 0 days: tumor volume at 0 days (baseline); for Volume (mm^3), 12 days: tumor volume at 12 days
Experimental: In this example, human multiple myeloma RPMI-8226 cell line was used as the cell model. The inhibitory effects of compounds on the growth of NOD/SCID mouse transplanted tumors of RPMI-8226 tumor cells were determined. The evaluation methods and results are described below.
Human multiple myeloma RPMI-8226 cells were routinely cultured in RPMI1640 containing 10% fetal bovine serum at 37°C in a 5% CO2 incubator. After three passages in vitro, when the cells reached over 80% confluence and the required confluence rate, the cells were digested and harvested. After washing with PBS, the cells were counted and the cell concentration was adjusted to approximately 5 × 10^7 cells/mL. The cells were then placed in 4 mL centrifuge tubes on ice for later use.
Female NOD/SCID mice aged 4-5 weeks were selected and subcutaneously inoculated with RPMI-8226 cells ectopically. The mice were held in a lateral position, the forelimb axilla was disinfected with 75% alcohol, and 100 µL of the cell suspension was injected subcutaneously into the axilla using a 1 mL syringe ([…]/100 µL).
Once the tumors grew to 90-150 mm^3, the animals were randomly grouped, 8 mice per group, and administered according to different administration methods as follows: • Model control group: administered with the same volume of Vehicle (DMSO: 0.5% sodium carboxymethyl cellulose: distilled water = 1:1:8) daily by gavage; • Test groups: administered with compound I-4 and compound I-8 solutions at 10 mg/kg (mouse body weight) daily by gavage, respectively; • Positive control group: administered with pomalidomide solution at 10 mg/kg (mouse body weight) daily by gavage.
The route of administration was oral gavage, and the administration frequency was once daily, for 12 consecutive days. The first day of administration was defined as Day 1 of the experiment. Tumor volume changes in mice were measured and recorded every two days. Tumor volume was measured using a vernier caliper, in which the major axis (a) and minor axis (b) of the tumor were measured, and the tumor volume was calculated as: tumor volume V (mm^3) = a x b^2/2. After the experiment, the mice were dissected and the tumor weight was measured. The data were entered and statistically analyzed using GraphPad Prism 6 software. The data are expressed as mean ± SEM (Standard Error of Mean), and one-way ANOVA was used. P ≤ 0.05 was considered statistically significant.

| Structure (SMILES) | IC50 [1] | IC50 [2] | IC50 [3] | IC50 [4] | growth of RPMI-8226 transplanted tumors (in words) [5] | Tumor inhibition rate TGI (%) [5] | Volume (mm^3), 0 days [5] | Volume (mm^3), 12 days [5] |
| --- | --- | --- | --- | --- | --- | --- | --- | --- |
| CN1Cc2c(NCc3ccc(CN4CCN(c5ccc(C#N)c(F)c5)CC4)cc3)cccc2C(=O)N1C1CCC(=O)NC1=O (centres unmarked) [I-8] | 0.0039 µM | 0.0088 µM | 0.017 µM | 0.0058 µM | significantly inhibit the growth | 80.13% | 257.5 mm^3 | 520.3 mm^3 |
| CN1Cc2c(N)cccc2C(=O)N1C1CCC(=O)NC1=O (centres unmarked) [I-4, 3-(5-amino-3-methyl-1-oxo-3,4-dihydrophthalazin-2(1H)-yl)piperidin-2,6-dione] | 0.116 µM | 0.31 µM | 1.21 µM | 0.183 µM | significantly inhibit the growth | 73.38% | 189.0 mm^3 | 541.1 mm^3 |
| Nc1cccc2c1C(=O)N(C1CCC(=O)NC1=O)C2=O (centres unmarked) [Pomalidomide, reference compound] | 3.91 µM | 2.53 µM | > 10 µM | > 10 µM | – | 47.80% | 180.0 mm^3 | 870.4 mm^3 |
